Data: patent EP0384661A1, “Antialgal compositions comprising diphenylethers” (ROHM AND HAAS COMPANY, priority 1989, dated 1990)
Converted amounts (≈) assume the structure as drawn. Where a name gives a salt, the structure may show the parent alone.

Tests used:
[1] = tested on: Mixed Cooling Tower Culture; experiment: MIC microtiter plate assay; type: cell-based, mixed culture of algae; details: growth/no-growth after 14 or 21 days, 25°C
Procedure: (§1) Efficacy studies were conducted on a variety of microorganisms with oxyfluorfen. Minimum Inhibitory Concentration (MIC) studies were conducted using microtiter plate assays. In this method, a wide range of concentrations was tested by preparing two-fold serial dilutions of the compound in 96-well plastic microtiter plates. All liquid media transfers were performed with calibrated single or multichannel digital pipetters. Stock solutions of compounds were prepared in appropriate solvents and dispensed to the growth medium. All subsequent dilutions in plates were made using the desired growth medium. The total volume of liquid in each well was 100 ul. The pure cultures used in this study were obtained from the Culture Collection of Algae at the University of Texas at Austin (UTEX). The mixed culture of algae was obtained from a cooling tower biofilm and maintained in liquid medium; microorganisms used as inocula were cultured in shaken liquid culture (50 ml of Bristol's medium, pH 7.0, 25°C); Journal of Phycology, 23s: 1-47, 1987) for one week or as needed to attain a desired cell mass. The cultures were then inoculated into the microtiter plates using a 96-prong multiple inoculator (5 µl inoculum); each well received a standard suspension of biomass (5% inoculum). Plates were incubated at 25°C under constant illumination (500 ft candles). The extent of growth was determined under low magnification with the aid of a microtiter plate reader. The growth in each cell was monitored periodically and growth/no-growth was recorded after 14 or 21 days. […] Following the evaluation procedure of Example 3, compounds according to the following structural formula, with X and Y substituents according to Table 4A, were evaluated with the results shown in Table 4B. [drawing 4]

[2] = tested on: mixed population of algae and blue-green bacteria; experiment: Model cooling tower biofilm efficacy (chlorophyll a); type: cell-based; details: one-per-week slug doses, biofilm harvested after four weeks
Procedure: Oxyfluorfen was tested as a water treatment antialgal compound in model cooling towers which simulate pertinent process variables of industrial cooling towers. Compounds were dosed on a regular basis and the efficacy of the treatments was determined by measuring a parameter of algal or cyanobacterial biomass; specific operating parameters are described below.
The basic design consisted of an acrylic plastic tower placed within a 17-liter polycarbonate basin. Each model contained a temperature control system, acid (H₂SO₄) or base (KOH) feed for pH control, air flow regulators, water recirculation system, and a makeup water supply. Two sets of five towers were placed in vented enclosures.
The basin contained an overflow port positioned to provide a constant 8-liter working volume in the system. […]
Illumination was provided by cool white and grow-lux fluorescent lights operated on a 19 hours per day cycle. The heating system for each unit consisted of an immersion heating element, temperature controller, two thermistors, and a direct readout thermometer. […]
The model cooling towers were designed and operated to maintain a constant half-life in each unit. […] The rate of removal of a given compound from the system was thereby determined by the concentration of the material in the bulkwater and the rate of blowdown from the tower. […]

[3] = tested on: mixed cooling tower culture; experiment: Simulated cooling tower water jar test, visual growth rating; type: cell-based; design: key to Visual Rating (7 Day Incubation): 0 = no growth; 1 = slight growth; 3 = moderate growth; 5 = abundant growth; details: for Visual Rating (7 Day Incubation): synthetic cooling tower water pH 8.5
Procedure: A study was conducted with simulated cooling tower water to determine the effect of oxyfluorfen as an antialgal compound under simulated cooling tower conditions. Synthetic cooling tower water was made up with the following final concentrations (pH 8.5): Approximately 500 ml of the above solution was added to half-gallon jars and each jar was charged with given levels of oxyfluorfen (supplied as an emulsifiable concentrate); one jar contained no antialgal compound (control). Another set of jars was prepared with known levels of Isothiazolone A, a known antialgal compound for comparison purposes. Each jar was inoculated with 5 ml of a mixed cooling tower culture which was obtained from surface scrapings of industrial cooling towers; the mixed populations were maintained at room temperature in modified Allen's Media Formulation B described below in Part B. Each jar was inoculated two times per week to challenge the system. Jars were incubated under a 12 hour illumination cycle at room temperature (25°C) and were mixed manually (by swirling) three times per day. Visual observations were recorded daily using the rating scale described in Part C.

Anabaena flos-aquae = experiment: MIC microtiter plate assay; type: cell-based; details: Dolichospermum flos-aquae; growth/no-growth after 14 or 21 days, 25°C
Procedure: as §1

Chlorella pyrenoidosa = experiment: MIC microtiter plate assay; type: cell-based; details: growth/no-growth after 14 or 21 days, 25°C
Procedure: (§2) Efficacy studies were conducted on a variety of microorganisms with oxyfluorfen. Minimum Inhibitory Concentration (MIC) studies were conducted using microtiter plate assays. In this method, a wide range of concentrations was tested by preparing two-fold serial dilutions of the compound in 96-well plastic microtiter plates. All liquid media transfers were performed with calibrated single or multichannel digital pipetters. Stock solutions of compounds were prepared in appropriate solvents and dispensed to the growth medium. All subsequent dilutions in plates were made using the desired growth medium. The total volume of liquid in each well was 100 ul. The pure cultures used in this study were obtained from the Culture Collection of Algae at the University of Texas at Austin (UTEX). The mixed culture of algae was obtained from a cooling tower biofilm and maintained in liquid medium; microorganisms used as inocula were cultured in shaken liquid culture (50 ml of Bristol's medium, pH 7.0, 25°C); Journal of Phycology, 23s: 1-47, 1987) for one week or as needed to attain a desired cell mass. The cultures were then inoculated into the microtiter plates using a 96-prong multiple inoculator (5 µl inoculum); each well received a standard suspension of biomass (5% inoculum). Plates were incubated at 25°C under constant illumination (500 ft candles). The extent of growth was determined under low magnification with the aid of a microtiter plate reader. The growth in each cell was monitored periodically and growth/no-growth was recorded after 14 or 21 days.

Clorococcum oleofaciens = experiment: MIC microtiter plate assay; type: cell-based; details: growth/no-growth after 14 or 21 days, 25°C
Procedure: as §2

Nostoc commune = experiment: MIC microtiter plate assay; type: cell-based; details: growth/no-growth after 14 or 21 days, 25°C
Procedure: as §2

[4] = tested on: Phormidium luridum var. olivace; experiment: MIC microtiter plate assay; type: cell-based; details: Drouetiella lurida; growth/no-growth after 14 or 21 days, 25°C
Procedure: as §2

Scendesmus quadricaudra = experiment: MIC microtiter plate assay; type: cell-based; details: growth/no-growth after 14 or 21 days, 25°C
Procedure: as §2

[5] = tested on: Selanastrum capricornutum; experiment: MIC microtiter plate assay; type: cell-based; details: growth/no-growth after 14 or 21 days, 25°C
Procedure: as §2

[6] = tested on: Synechococcus leopooliensis; experiment: MIC microtiter plate assay; type: cell-based; details: growth/no-growth after 14 or 21 days, 25°C
Procedure: as §2

[7] = tested on: mixed cooling tower algae; experiment: Paint algicide test (latex paint on tongue depressors); type: cell-based; design: key to 7 Days Algal Growth / 10 Days Algal Growth / 14 Days Algal Growth: 0 = No Algal Growth; 5 = Moderate Algal Growth; 10 = Heavy Algal Growth
Procedure: Solutions of oxyfluorfen were prepared as follows in 1-ounce (28.3g) glass vials. Oxyfluorfen concentrate (0.17 g) was added to 19.83 g latex paint formulation (described below) to give 2-lb oxyfluorfen/100 gal. (2 kg/833 l) paint solution; in a similar manner, 0.08 g oxyfluorfen concentrate was added to 19.92 g latex paint formulation to give 1-lb/100-gal (1 kg/833 l) solution. Oxyfluorfen concentrate (1.0 g) was added to 19.0 g mixture of 2 parts xylene/1 part cyclohexanone; 0.17 g of the resultant solution was added to 19.83 g latex paint formulation to give 0.1-lb/100-gal oxyfluorfen solution; in a similar manner, 0.016 g of xylene/cyclohexanone solution was added to 19.984 g latex paint formulation to give 0.01-lb/100-gal solution.
The solutions were stirred manually with Teflon spatulas and each was applied to two tongue depressors using #7 paint brushes. Two control tongue depressors were similarly prepared except without oxyfluorfen in the latex paint formulation. The tongue depressors were allowed to dry for one week and then inoculated with four 50 ul drops of mixed cooling tower algae (obtained from surface scrapings of industrial cooling towers and maintained in a modified Allen's media formulation, described in EXAMPLE 1).
The tongue depressors were placed on plastic stages within large petri dishes and the area around the stages was filled with deionized water. The petri dishes were covered and placed in a Precision (Model 816) low temperature (25C) illuminated incubator for one week; at this point the tongue depressors were re-inoculated with one ml of the mixed cooling tower algae and returned to the incubator. The tongue depressors where then checked daily for algal growth (visual); results are found in Part C.
Oxyfluorfen was added as a 24% emulsifiable concentrate in mixed organic solvents. The following formulation is a typical paint blend for testing of stabilization against algal activity. Texanol¿ is trimethyl-1,3-pentanediol monoisobutyrate supplied by Eastman Chemical; Rhoplex AC-64 is a commercially available latex of a copolymer of butyl acrylate and methyl methacrylate. This paint formulation has a pH of 9.4 and an initial viscosity of […] (Krebs units).

[8] = tested on: 10 differents types of algae; details: all levels tested; 10 types of algae; cited from earlier work
[9] = 10 ppm (0.01 lb/100-gal) in latex paint
[10] = 100 ppm (0.10 lb/100-gal) in latex paint
[11] = 1000 ppm (1.0 lb/100-gal) in latex paint
[12] = 2000 ppm (2.0 lb/100-gal) in latex paint

## CCOC(=O)COC(=O)c1cc(Oc2ccc(C(F)(F)F)cc2Cl)ccc1[N+](=O)[O-] [4F comparative]
[1]
  MIC: 1 µg/mL (≈ 2.23 µM)

## CCOc1cc(Oc2ccc(C(F)(F)F)cc2Cl)ccc1[N+](=O)[O-] [Oxyfluorfen, oxyfluorfen]
[2]; 0.05 ppm
  Chlorophyll a in Biofilm: 3.27 ug/cm2
[2]; 672 h, read-out: Chlorophyll a in Biofilm % of control
  activity at 0.05 ppm: 24%
[3]; 0.005 ppm
  Visual Rating (7 Day Incubation): 0
[3]; 0.010 ppm
  Visual Rating (7 Day Incubation): 0
[3]; 0.025 ppm
  Visual Rating (7 Day Incubation): 0
[3]; 0.050 ppm
  Visual Rating (7 Day Incubation): 0
[3]; 0.100 ppm
  Visual Rating (7 Day Incubation): 0
[3]; 0.250 ppm
  Visual Rating (7 Day Incubation): 0
[3]; 0.500 ppm
  Visual Rating (7 Day Incubation): 0
[3]; simulated water chemistry conditions
  levels effective for controlling cooling tower algae: ≤ 5 ppb
Anabaena flos-aquae
  MIC: > 500 µg/mL
Chlorella pyrenoidosa
  MIC: 0.125 ppm
Clorococcum oleofaciens
  MIC: > 0.125 µg/mL
Nostoc commune
  MIC: > 500 µg/mL
[4]
  MIC: > 500 µg/mL
Scendesmus quadricaudra
  MIC: < 0.002 µg/mL
[5]
  MIC: 0.008 µg/mL (≈ 0.0221 µM)
[6]
  MIC: > 500 µg/mL
[1]
  MIC: < 0.004 µg/mL
[7]; [9]
  7 Days Algal Growth: 0
  10 Days Algal Growth: 2
  14 Days Algal Growth: 3
[7]; [10]
  7 Days Algal Growth: 0
  10 Days Algal Growth: 1
  14 Days Algal Growth: 1
[7]; [11]
  7 Days Algal Growth: 0
  10 Days Algal Growth: 0
  14 Days Algal Growth: 0
[7]; [12]
  7 Days Algal Growth: 0
  10 Days Algal Growth: 0
  14 Days Algal Growth: 0
[7]; for up to 14 days, in latex paint
  levels that significantly reduced the rate of algal growth: ≤ 10 ppm
[7]; in latex paint
  levels that totally inhibited algal growth: above 100 ppm

## O=C(O)c1cc(Oc2ccc(C(F)(F)F)cc2Cl)ccc1[N+](=O)[O-] [acifluorfen, 2-chloro-4-trifluoromethylphenyl-3′-carboxy-4′-nitrophenylether, sodium salt]
[8]
  effectiveness on algae: ineffective at all levels tested

## CCOC(=O)C(C)Oc1cc(Oc2ccc(C(F)(F)F)cc2Cl)ccc1[N+](=O)[O-] (stereo not shown) [Compound 4G]
[1]
  MIC: 0.25 µg/mL (≈ 0.576 µM)

## O=C(O)c1cc(Oc2ccc(C(F)(F)F)cc2Cl)ccc1[N+](=O)[O-] [4E comparative]
Anabaena flos-aquae
  MIC: > 50 µg/mL
[1]
  MIC: 12.5 µg/mL (≈ 34.6 µM)

## CC(=O)Oc1cc(Oc2ccc(C(F)(F)F)cc2Cl)ccc1[N+](=O)[O-] [4C comparative]
Anabaena flos-aquae
  MIC: 12.5 µg/mL (≈ 33.3 µM)
[1]
  MIC: 0.25 µg/mL (≈ 0.665 µM)

## O=[N+]([O-])c1ccc(Oc2ccc(C(F)(F)F)cc2Cl)cc1O [4D comparative]
Anabaena flos-aquae
  MIC: 12.5 µg/mL (≈ 37.5 µM)
[1]
  MIC: 0.06 µg/mL (≈ 0.18 µM)

## Oc1cccc(Oc2ccc(C(F)(F)F)cc2Cl)c1 [4A comparative]
Anabaena flos-aquae
  MIC: 3.1 µg/mL (≈ 10.7 µM)
[1]
  MIC: 1.6 µg/mL (≈ 5.54 µM)

## CC(=O)Oc1cccc(Oc2ccc(C(F)(F)F)cc2Cl)c1 [4B comparative]
Anabaena flos-aquae
  MIC: 16 µg/mL (≈ 48.4 µM)
[1]
  MIC: 8 µg/mL (≈ 24.2 µM)
